# Columns and labels:
# [1] = tested on: effective bladder capacity; test: Cystometry test on guinea pigs with cut spinal cord; format: in vivo; details: guinea pig
# From the text: (2) Cystometry Test on Guinea Pigs
# The method used was according to the method proposed by JS. Peterson et al. (Peterson J S. et al., J. Pharmacol. Methods 21(1989): 231), to which minor modifications were made.
# Guinea pigs were anesthetized with halothane and the tenth thoracic spinal cord was cut in each animal. Subsequently, both ureters were ligated and were cut on the kidney-side. Polyethylene catheters were inserted into the bladder to provide an injection pathway for physiological saline and a pathway for the measurement of intravesical pressure. Each animal was restricted in a Ballman cage and was left for more than 2 hours. Subsequently, room-temperature saline was injected through the bladder catheter into the bladder at a rate of 6 mL/hr to conduct a cystometry test. Once the effective bladder capacity was stabilized, a test compound was intravenously administered into the jugular vein. The effective bladder capacity is defined as the volume of saline injected from one urination to the next. The effect of each test compound was determined as the increase in the average bladder volume, which was determined based on the average bladder volume measured 30 minutes prior to the administration of the test compound and the average bladder volume measured every 30 minutes after the administration of the test compound.
# NK1 receptor = target: T1, NK1 receptor (Cavia porcellus, UniProt P30547); test: Test for NK1 receptor antagonist: substance P concentration-response in isolated guinea pig ileum, Schild analysis; format: cell-based; details: substance P as agonist, 10 min pretreatment, method of Schild
# T1 construct: from tissue; host or cells: isolated guinea pig ileum
# T1 sequence (P30547 whole entry): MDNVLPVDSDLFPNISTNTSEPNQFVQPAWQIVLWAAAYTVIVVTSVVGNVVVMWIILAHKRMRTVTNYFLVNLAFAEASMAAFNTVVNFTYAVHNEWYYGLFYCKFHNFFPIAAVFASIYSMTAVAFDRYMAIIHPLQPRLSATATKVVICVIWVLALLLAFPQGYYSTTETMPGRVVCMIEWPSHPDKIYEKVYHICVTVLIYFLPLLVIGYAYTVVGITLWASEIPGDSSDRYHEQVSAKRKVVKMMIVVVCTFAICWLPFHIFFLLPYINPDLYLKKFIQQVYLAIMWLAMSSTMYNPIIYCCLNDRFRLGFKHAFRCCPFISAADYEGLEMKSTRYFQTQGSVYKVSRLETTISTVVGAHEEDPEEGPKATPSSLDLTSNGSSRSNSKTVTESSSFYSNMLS
# Procedure: (1) Test for NK1 Receptor Antagonist
# The method used was according to the method proposed by S. Dion et al. (Dion et al., Life Sciences 41(1987): 2269), to which minor modifications were made.
# Guinea pigs were stunned by a blow on the head and were exsanguinated from the carotid artery and ilea were isolated. The ileum was mounted in an organ bath containing Tyrode's solution which was maintained at 32° C. and gased with 95% O2 and 5% CO2. The ileum was subjected to a resting tension of 1-gram and allowed to equilibrate for 20 minutes before the experiment was started. As a control, a concentration-response curve for substance P in the absence of any of test compounds was used. The NK1 receptor antagonist activity of each test compound was determined by a concentration-response curve obtained by pretreating at least three concentrations of the test compound for 10 minutes and subsequently applying substance P in a cumulative manner. The Kb values were determined according to the method of Schild and the results are shown in Table 1 (Schild Brit. J. Pharmacol. 14(1959): 48).
# The composition of the Tyrode's solution was as follows: NaCl=136.9, KCl=2.7, CaCl2.2H2O=2.5, MgCl2.6H2O=1.0, NaH2PO4.2H2O=0.4, NaHCO3=11.9, glucose=11.1 (mmol/L).
Kb (NK1 receptor) [nM],SMILES,Increase in bladder capacity (%) ([1]; 0.3 mg/kg i.v.),Increase in bladder capacity (%) ([1]; 1 mg/kg i.v.),Increase in bladder capacity (%) ([1]; 3 mg/kg i.v.)
0.0888,"CC(=O)N1CCN(c2cc(-c3ccccc3C)c3c(n2)OCCCN(Cc2cc(C(F)(F)F)cc(C(F)(F)F)c2)C3=O)CC1 [Example 1, 9-(4-acetylpiperazine-1-yl)-5-[3,5-bis(trifluoromethyl)benzyl]-7-(2-methylphenyl)-6-oxo-2,3,4,5-tetrahydro-6H-pyrido[2,3-b][1,5]oxazocine]",32.2,,
0.0847,"CC(=O)N1CCN(c2cc(-c3ccc(F)cc3)c3c(n2)OCCCN(Cc2cc(C(F)(F)F)cc(C(F)(F)F)c2)C3=O)CC1 [Example 2, 9-(4-acetylpiperazine-1-yl)-5-[3,5-bis(trifluoromethyl)benzyl]-7-(4-fluorophenyl)-6-oxo-2,3,4,5-tetrahydro-6H-pyrido[2,3-b][1,5]oxazocine]",,,
0.294,"CC(=O)N1CCCN(c2cc(-c3ccccc3C)c3c(n2)OCCCN(Cc2cc(C(F)(F)F)cc(C(F)(F)F)c2)C3=O)CC1 [Example 6, 9-(4-acetylhomopiperazine-1-yl)-5-[3,5-bis(trifluoromethyl)benzyl]-7-(2-methylphenyl)-6-oxo-2,3,4,5-tetrahydro-6H-pyrido[2,3-b][1,5]oxazocine]",,,
0.269,Cc1ccc(-c2c3n(c(=O)c4ncccc24)CC[C@@H](C)CN(Cc2cc(C(F)(F)F)cc(C(F)(F)F)c2)C3=O)cc1 [TAK-637],12.0,23.8,20.5

# From patent US7026309B2, “Fused bicyclic pyridine derivative as tachykinin receptor antagonist” (Kyorin Pharmaceutical Co., Ltd., priority 2002, dated 2006)
